Measured values taken from patent US5892071A, “Cationic transport reagents” (The Reagents of The University of California, priority 1995, dated 1999).

Legend:
[1] = test system: NIH 3T3 fibroblasts; assay: Hydrophobic and polar domain transfection analysis of PolyGum derivatives (luciferase specific activity, pGL3I+); format: cell-based, Murine; details: for transfection effectiveness ranking among methoxy PolyGum derivatives: 1 microgram plasmid DNA pGL3I+, 48 hours (FIG. 9)
Experimental: (§1) Transfection activity was measured using the luciferase assay. Luciferase assays were performed with a luciferase assay kit (purchased from Analytical Luminescence Laboratories) using a Monolight 2010 luminometer (Analytical Luminescence Laboratories, San Diego, Calif.) according to the manufacturer's instructions. The media was removed from the transfected cells via aspiration. 0.5 mL of luciferase buffer/well was added, and the cells were placed on ice for 15 min. Luciferase light emissions from 100 μl of the lysate were measured using the luminometer.
Shown in FIG. 9 are hydrophobic and polar domain transfection results for various synthesized PolyGum derivatives. In the tests, 1.0×10^5 NIH 3T3 fibroblasts were plated 24 hours prior to transfection. Cell lysates were obtained 48 hours after transfection and assayed for luciferase specific activity. The data presented in FIG. 9 corresponds to the ability of the subject cationic lipid to mediated delivery of 1 microgram of plasmid DNA (pGL3I+).

[2] = test system: transfected cells; assay: Alamar Blue toxicity assay; format: cell-based
Experimental: Usually, 24 well tissue culture plates containing 5.0×10^4 cells/well rapidly dividing adherent NIH 3T3 cells per well were transfected. The growth media was removed via aspiration and the cells were washed once with 0.5 mL PBS/well. A 200 μl aliquot of liposome-DNAcomplex was added to each well and the cells were allowed to incubate for 4 hr. at 37° C. If desired, at this time, 1 mL of DMEM+10% fetal calf serum/well was added and the cells were allowed to incubate for an additional 48 hr, after which assays of toxicity and/or efficacy were performed. Equivalent procedures were utilized for the DU-145 cells.
Alamar blue (Alamar Biosciences, Sacramento, Calif.), was diluted in cell culture media to 10%, added to cells, and incubated for up to two hours. Reduced dye was quantitated using a CytoFluor 2300 fluorescence plate reader with a 530 nm excitation filter and a 590 nm emission filter. Values expressed represent fluorescence less background. The same transfected cells can subsequently be assayed for reporter protein activity after Alamar Blue analysis.

[3] = test system: NIH 3T3 cells; assay: Luciferase transfection assay (pCMVL plasmid), NIH 3T3 cells; format: cell-based, Murine
Experimental: NIH 3T3 cells were grown in Dulbecco's modified Eagles medium (DMEM)+10% fetal calf serum. The DNA plasmid pCMVL was prepared by standard methods and used as a 369 ng/μl solution in TE, pH=7.6. The luciferase reporter plasmid pCMVL was prepared at UC Davis, and consists of the P. pyralis luciferase cDNA subcloned into the plasmid pRc/CMV (Invitrogen).
Multilamellar and small sonicated vesicles were prepared by addition of the cationic lipid DOHME together with DOPE, both as solutions in chloroform, to a 5 mL sample vial. The chloroform was removed via rotary evaporation with the water bath set at a constant temperature of 37° C. The resulting thin lipid films were placed under high vacuum overnight to insure that all traces of solvent had been removed. The lipid mixture was resuspended using distilled water ([…] total lipid/1 mL water) and vortex mixed to give a suspension of MLVs. This cloudy suspension was sonicated for fifteen minutes using a bath sonicator until a clear suspension containing SVs was obtained.
Sequential addition of DMEM (with or without 10% fetal calf serum), pCMVL plasmid (for n=4, 4 μg), and liposome formulation into a 2 mL Eppendorf tube gave a total volume of 800 μl. The relative amount of liposome:pCMVL plasmid used was determined by the desired cationic lipid:DNA phosphate charge ratio. The mixing of these substances was followed by thorough vortexing.
Usually, 24 well tissue culture plates containing 5.0×10^4 cells/well rapidly dividing adherent NIH 3T3 cells per well were transfected. The growth media was removed via aspiration and the cells were washed once with 0.5 mL PBS/well. […]
as §1, with “The media was removed from the transfected cells via aspiration. 0.5 mL of luciferase buffer/well was added, and the cells were placed on ice for 15 min.” left out

In the case of `CCCCCCCCCCCC(=O)OC(C[N+](C)(C)CCOC)C(C[N+](C)(C)CCOC)OC(=O)CCCCCCCCCCC` (racemic) [DL-PG-Me], the “transfection effectiveness ranking among methoxy PolyGum derivatives” value [1] was “least effective in transfection”.

With `CCCCCCCCCCCCCC(=O)OC(C[N+](C)(C)CCOC)C(C[N+](C)(C)CCOC)OC(=O)CCCCCCCCCCCCC` (centres unmarked) [DM-PG-Me] the “transfection efficiency, methoxy versus non-methoxy form” value ([1]; DM-PG-Me versus DM-PG-OH (FIG. 9)) was “more efficient in transfection than the non-methoxy form”.

In the case of `CCCCCCCCCCCCCCCC(=O)OC(C[N+](C)(C)CCOC)C(C[N+](C)(C)CCOC)OC(=O)CCCCCCCCCCCCCCC` (centres unmarked) [DP-PG-Me], the “transfection effectiveness ranking among methoxy PolyGum derivatives” value [1] was “most effective in transfection”.

`CCCCCCCC/C=C\CCCCCCCC(=O)OC(C[N+](C)(C)CCO)C(C[N+](C)(C)CCO)OC(=O)CCCCCCC/C=C\CCCCCCCC.[I-].[I-]` (centres unmarked) [PolyGum, N,N,N',N'-tetramethyl-N,N'-bis(2-hydroxyethyl)-2,3-di(oleoyloxy)-1,4-butanediaminium iodide] was tested, and the “toxicity versus LIPOFECTIN and several other amine containing vesicles” value ([2]; PolyGum MLV formulation) was “less toxicity”, the “toxicity versus LIPOFECTIN and several other amine containing vesicles” value ([2]; PolyGum SV formulation) was “less toxicity” and the “effect of serum on PolyGum (MLV) mediated transfection” value ([3]; MLV, serum-free versus 10% calf serum (FIG. 3)) was “greatly increased transfection is found with serum-free conditions than in the presence of 10% calf serum”. The “efficiency of transfection as mole ratio of DOPE to PolyGum is increased” value ([3]; SV, serum-free (FIG. 5)) was “the efficiency of transfection is lowered in a generally linear fashion” and the “effect of serum on PolyGum mediated transfection under other transfection conditions” value ([3]; other transfection conditions, with serum) was “little change is noted with serum transfection”.
